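Protocol summary: plate cells (96-well), add compound at 5 concentrations, incubate 48 h, interpolate endpoints linearly. Here, GI50 denotes the concentration required for 50% inhibition of growth.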 Active and inactive are the calls of the source. Cut-off read from the data, not from the text of the source: active = GI50 up to about 1.1 µM and inactive = higher.
Tests used:
Assay in all cases: NCI anticancer screen, dose series, 48 h
M19-MEL = test system: M19-MEL
SNB-78 = test system: SNB-78
DLD-1 = test system: DLD-1
LXFL 529 = test system: LXFL 529
DMS-114 = test system: DMS-114
HOP-18 = test system: HOP-18
KM-20L2 = test system: KM-20L2
XF498 = test system: XF498
RXF 631 = test system: RXF 631

SMILES | GI50 (M19-MEL) | GI50 (SNB-78) | GI50 (DLD-1) | GI50 (LXFL 529) | GI50 (DMS-114) | GI50 (HOP-18) | GI50 (KM-20L2) | GI50 (XF498) | GI50 (RXF 631)
O=c1[nH]cnc2c(COCCCO)c[nH]c12 | > 100 µM (inactive) | > 100 µM (inactive) | > 100 µM (inactive) | > 100 µM (inactive) | > 100 µM (inactive) | > 100 µM (inactive) | > 100 µM (inactive) | – | –
Cc1ccccc1NC(=O)CSc1nnc(Cc2ccccc2)o1 | > 100 µM (inactive) | > 100 µM (inactive) | > 100 µM (inactive) | > 100 µM (inactive) | > 100 µM (inactive) | > 100 µM (inactive) | > 100 µM (inactive) | – | –
Nc1ccc2cc(S(=O)(=O)O)cc(O)c2c1/N=N/c1ccc(NC(=O)Nc2ccc(/N=N/c3c(N)ccc4cc(S(=O)(=O)O)cc(O)c34)c(S(=O)(=O)O)c2)cc1S(=O)(=O)O | > 100 µM (inactive) | 97.7 µM (inactive) | > 100 µM (inactive) | – | 98.6 µM (inactive) | > 100 µM (inactive) | – | > 100 µM (inactive) | –
COc1c(CC(C)O)c2c3c(CC(C)O)c(OC)c(=O)c4c(O)cc5c(c6c(cc(O)c(c1=O)c62)OCO5)c43 (centres undefined) [CERCOSPORIN] | 0.664 µM (active) | 2.15 µM (inactive) | 1.96 µM (inactive) | 1.56 µM (inactive) | – | 2.58 µM (inactive) | 0.301 µM (active) | – | –
CC1(C)OC2OC(COC(=O)C(c3ccccc3)c3ccccc3)C3OC(C)(C)OC3C2O1 (centres undefined) | 66.7 µM (inactive) | – | 7.98 µM (inactive) | > 10 µM (inactive) | 22.2 µM (inactive) | > 10 µM (inactive) | 50.2 µM (inactive) | 14.7 µM (inactive) | –
Cn1nc(-c2ccccc2)c(C(=O)/C=C/c2ccccc2)c(N2CCCC2)c1=O | 16.6 µM (inactive) | – | 12.1 µM (inactive) | 11.9 µM (inactive) | 11.4 µM (inactive) | 16.4 µM (inactive) | 14.5 µM (inactive) | 18.8 µM (inactive) | 29 µM (inactive)
COc1cc(=O)oc(/C=C/C=O)c1C | 18.1 µM (inactive) | > 10 µM (inactive) | 16 µM (inactive) | 17.1 µM (inactive) | 12.7 µM (inactive) | 18 µM (inactive) | 16.8 µM (inactive) | 17 µM (inactive) | 14.7 µM (inactive)
CCCCCCCCCCC(C)CCCCCCC(=O)OCC(COP(=O)([O-])OCC[N+](C)(C)C)OC(=O)CCCCCCC(C)CCCCCCCCCC (centres undefined) | > 100 µM (inactive) | > 100 µM (inactive) | > 100 µM (inactive) | > 100 µM (inactive) | > 100 µM (inactive) | > 100 µM (inactive) | > 100 µM (inactive) | – | > 100 µM (inactive)
Cc1c2cc[n+](C)cc2c(C)c2c1[nH]c1ccccc12 | 0.718 µM (active) | – | 1.65 µM (inactive) | – | 0.315 µM (active) | 2.91 µM (inactive) | – | 0.608 µM (active) | –
Cc1ccc(S(=O)(=O)OCCOCCOCCOCCOCCOS(=O)(=O)c2ccc(C)cc2)cc1 | 30.3 µM (inactive) | 83.9 µM (inactive) | 60.8 µM (inactive) | 33.7 µM (inactive) | – | 65.3 µM (inactive) | 59.2 µM (inactive) | – | 27.1 µM (inactive)
c1ccc(C2N3CCCCC3[C@@H]3c4[nH]c5ccccc5c4CCN23)cc1 (some centres undefined) | 58.2 µM (inactive) | 47.5 µM (inactive) | 54.1 µM (inactive) | 85.3 µM (inactive) | 38.7 µM (inactive) | > 100 µM (inactive) | > 100 µM (inactive) | > 100 µM (inactive) | –
COc1ccc2c(c1)[n+]([O-])c(C(C)=O)c(C)[n+]2[O-] | > 100 µM (inactive) | > 100 µM (inactive) | > 100 µM (inactive) | > 100 µM (inactive) | > 100 µM (inactive) | > 100 µM (inactive) | – | > 100 µM (inactive) | –
COc1ccc(C(=O)c2c3cc(OC)c(OC)c(OC)c3cc[n+]2C)cc1 | 24.1 µM (inactive) | 38.5 µM (inactive) | 17.1 µM (inactive) | 24.9 µM (inactive) | 23.7 µM (inactive) | 20.6 µM (inactive) | 28.3 µM (inactive) | 15 µM (inactive) | 37.4 µM (inactive)
CN(c1ccc(C(=O)c2ccc(N(C)S(C)(=O)=O)cc2)cc1)S(C)(=O)=O | > 100 µM (inactive) | > 100 µM (inactive) | > 100 µM (inactive) | 42.4 µM (inactive) | 14.1 µM (inactive) | – | > 100 µM (inactive) | – | –
O=C(CCCN1CCC(C(O)c2ccc(F)cc2)CC1)c1ccc(F)cc1 (centres undefined) | 59.6 µM (inactive) | 56.9 µM (inactive) | 51.8 µM (inactive) | – | 49.7 µM (inactive) | 66.8 µM (inactive) | 41.7 µM (inactive) | 4.46 µM (inactive) | –
O=C(NC1CCCCC1)NC12CC3CC(CC(F)(C3)C1)C2 | > 100 µM (inactive) | > 100 µM (inactive) | > 100 µM (inactive) | > 100 µM (inactive) | > 100 µM (inactive) | – | > 100 µM (inactive) | > 100 µM (inactive) | > 100 µM (inactive)
CC1(CO)OC(n2cnc3c(N)ncnc32)C(O)C1O (centres undefined) | > 100 µM (inactive) | – | > 100 µM (inactive) | > 100 µM (inactive) | > 100 µM (inactive) | > 100 µM (inactive) | – | – | –
CCN(CC)CCn1nc2c3c(c(NCCN)ccc31)Sc1cc(O)ccc1-2 | 0.347 µM (active) | 0.877 µM (active) | 1.25 µM (inactive) | 0.178 µM (active) | 0.31 µM (active) | 1.62 µM (inactive) | – | 0.128 µM (active) | –
CCCCCCCCCCCCNC(=S)OC | 17.9 µM (inactive) | 21.5 µM (inactive) | 15 µM (inactive) | 14.8 µM (inactive) | 4.63 µM (inactive) | 17 µM (inactive) | 16.3 µM (inactive) | 16.6 µM (inactive) | –
COC(=O)C1CCC(=O)C(Sc2ccccc2)C1 (centres undefined) | 62.1 µM (inactive) | > 100 µM (inactive) | > 100 µM (inactive) | > 100 µM (inactive) | 68.1 µM (inactive) | > 100 µM (inactive) | > 100 µM (inactive) | > 100 µM (inactive) | –
Cn1c(=O)c2nc3sc4c(n3c2n(C)c1=O)C(=O)c1ccccc1C4=O | > 86.7 µM (inactive) | > 100 µM (inactive) | > 100 µM (inactive) | > 100 µM (inactive) | > 100 µM (inactive) | 0.433 µM (active) | > 100 µM (inactive) | > 100 µM (inactive) | > 100 µM (inactive)
N#C/C(=C\c1ccc2ccccc2c1)c1ccccc1 | 26.6 µM (inactive) | 28.1 µM (inactive) | 25.7 µM (inactive) | 29.4 µM (inactive) | – | 22.1 µM (inactive) | 15.6 µM (inactive) | – | 30.5 µM (inactive)

From ChEMBL document CHEMBL1201862, “PubChem BioAssay data set” (2004)
